Results: the Deep4Chem optical property database
Where “and” joins values, the source holds several entries; their conditions need not be identical. Equal entries are not always repeated.

Assay: photoluminescence quantum yield (fraction); solvent given as SMILES

## C(=C\c1ncnc2ccccc12)/c1ccc(-c2ccc(N(c3ccccc3)c3ccccc3)cc2)cc1
In ClCCl
  photoluminescence quantum yield: 0.23

## CCN(CC)c1ccc(/C=N/Nc2ccc(C#N)cc2)c(O)c1
In CO
  photoluminescence quantum yield: 0.21

## O=c1oc2ccccc2cc1-c1nc2ccccc2o1
In C1CCOC1
  photoluminescence quantum yield: 0.77
In C1COCCO1
  photoluminescence quantum yield: 0.84
In CC1CCCCC1
  photoluminescence quantum yield: 0.94
In CC#N
  photoluminescence quantum yield: 0.72
In CC(C)=O
  photoluminescence quantum yield: 0.76
In CC(C)CO
  photoluminescence quantum yield: 0.8
In CC(C)O
  photoluminescence quantum yield: 0.76
In CCOC(C)=O
  photoluminescence quantum yield: 0.86
In CN(C)C=O
  photoluminescence quantum yield: 0.72
In CO
  photoluminescence quantum yield: 0.67
In CS(C)=O
  photoluminescence quantum yield: 0.77
In Cc1ccccc1
  photoluminescence quantum yield: 0.83
In ClC(Cl)(Cl)Cl
  photoluminescence quantum yield: 0.92
In ClC(Cl)Cl
  photoluminescence quantum yield: 0.87
In OCCO
  photoluminescence quantum yield: 0.68

## COC(=O)[C@]12N=N[C@](C(=O)OC)(C3C4C5C4C5C31)C1C3C4C3C4C12 (stereo partly drawn)
In CC#N
  photoluminescence quantum yield: 0.039

## O=C(O)c1c2ccccc2c(C(=O)O)c2ccccc12
In C1CCOC1
  photoluminescence quantum yield: 0.66
In CN(C)C=O
  photoluminescence quantum yield: 0.4

## COc1cc(-c2cnc(-c3cnc4ccccc4c3)o2)cc(OC)c1OC
In ClCCl
  photoluminescence quantum yield: 0.76

## Cn1ncc2c3c(C#N)c4c5ccccc5n(C)c4nc3ccc21
In CCOC(C)=O
  photoluminescence quantum yield: 0.51

## CCN(CC)c1ccc2cc(-c3ccc(-c4ccc(-c5cc6ccccc6oc5=O)cc4)cc3)c(=O)oc2c1
In ClCCl
  photoluminescence quantum yield: 0.59

## COC(=O)/C=C/C1=CC2=C(c3c(C)cc(C)cc3C)c3cc(/C=C/C(=O)OC)cn3[B-](F)(F)[N+]2=C1
In ClCCl
  photoluminescence quantum yield: 0.36

## C#Cc1ccc(/C2=c3\cc/c([nH]3)=C(\c3ccc(C#C)cc3)C3=N/C(=C(/c4cc(C(C)(C)C)cc(C(C)(C)C)c4)c4cc(c[nH]4)/C(c4cc(C(C)(C)C)cc(C(C)(C)C)c4)=C4/C=CC2=N4)C=C3)cc1
In CC(=O)N(C)C
  photoluminescence quantum yield: 0.0578

## N#CC1=CC(Br)=CC(C#N)=P1(c1ccccc1)c1ccccc1
In ClC(Cl)Cl
  photoluminescence quantum yield: 0.52

## COC(=O)[C@@]12N=N[C@@](C(=O)OC)(C3C4CCC(C4)C31)[C@@H]1CC12 (stereo partly drawn)
In CC#N
  photoluminescence quantum yield: 0.041

## c1cc2ccc1CCCc1ccc(c3nsnc13)CCC2
In C1CCCCC1
  photoluminescence quantum yield: 0.51
In CC#N
  photoluminescence quantum yield: 0.19
In ClC(Cl)Cl
  photoluminescence quantum yield: 0.49

## c1cc(-c2ccc3c(c2)CCCO3)ccc1-c1ccc2c(c1)CCCO2
In C1CCCCC1
  photoluminescence quantum yield: 0.6

## COC(=O)C(NC(=O)OC(C)(C)C)c1ccc2oc(-c3cccc(Oc4ccccc4)c3)nc2c1 (stereo not drawn)
In CC1CCCCC1
  photoluminescence quantum yield: 0.5
In CC#N
  photoluminescence quantum yield: 0.37
In CO
  photoluminescence quantum yield: 0.13

## Cc1cc(C2=C(c3c(C)sc(-c4ccc(-c5nc(-c6ccccc6)c(-c6ccccc6)[nH]5)cc4)c3C)C(F)(F)C(F)(F)C2(F)F)c(C)s1
In C1CCOC1
  photoluminescence quantum yield: 0.077

## CC1(C)c2ccccc2N(c2ccc(-c3ncccn3)cc2)c2ccccc21
In O=P(c1ccccc1)(c1ccccc1)c1ccc2oc3ccc(P(=O)(c4ccccc4)c4ccccc4)cc3c2c1
  photoluminescence quantum yield: 0.83

## CN1/C(=C/C=C(/C=C/C2=[N+](C)c3ccccc3C2(C)C)c2ccc(C(F)(F)F)cc2)C(C)(C)c2ccccc21
In CCO
  photoluminescence quantum yield: 0.11
In CO
  photoluminescence quantum yield: 0.09
In CS(C)=O
  photoluminescence quantum yield: 0.23

## CCCCN(CCCC)c1ccc(C#Cc2cc(C#Cc3ccc(N(CCCC)CCCC)cc3)c(C#Cc3c(F)c(F)c(F)c(F)c3F)cc2C#Cc2c(F)c(F)c(F)c(F)c2F)cc1
In ClCCl
  photoluminescence quantum yield: 0.3

## N#Cc1ccc(-c2cnc3cccc(-c4ccccc4)n23)cc1
In ClCCl
  photoluminescence quantum yield: 0.19

## COc1cc2c(cc1OC)C1=C[C@H](c3ccccc3)C3(C(C#N)=C(C#N)N1CC2)c1ccccc1-c1ccccc13
In ClCCl
  photoluminescence quantum yield: 0.00173

## N#Cc1nc(N(Cc2ccc(Br)cc2)Cc2ccc(Br)cc2)c(C#N)nc1N(Cc1ccc(Br)cc1)Cc1ccc(Br)cc1
In ClC(Cl)Cl
  photoluminescence quantum yield: 0.71

## CC1=[N+]2C(=C(c3c4ccccc4cc4ccccc34)c3ccc(C)n3[B-]2(F)F)C=C1
In C1CCOC1
  photoluminescence quantum yield: 0.002
In CC#N
  photoluminescence quantum yield: 0.002
In CCO
  photoluminescence quantum yield: 0.005
In CN(C)C=O
  photoluminescence quantum yield: 0.003
In CO
  photoluminescence quantum yield: 0.001
In CS(C)=O
  photoluminescence quantum yield: 0.002
In Cc1ccccc1
  photoluminescence quantum yield: 0.29
In ClC(Cl)Cl
  photoluminescence quantum yield: 0.01 and 0.004

## CCCCCCCCOc1ccc(C2=C(c3ccc(OCCCCCCCC)cc3)C(C)(C)c3ccccc32)cc1
In C1CCCCC1
  photoluminescence quantum yield: 0.11

## COC(=O)C1=NNC(C(=O)OC)=C2c3ccccc3C(=O)c3ccccc3C12 (stereo not drawn)
In CC#N
  photoluminescence quantum yield: 0.32

## CCN(C)c1ccc(C2=C3C(C)=CC(/C=C/c4ccc(OCCCN=[N+]=[N-])cc4)=[N+]3[B-](F)(F)n3c(C)cc(C)c32)cc1
In CO
  photoluminescence quantum yield: 0.69

## COc1ccc(/C=C/c2ccccc2)cc1OC
In C1CCCCC1
  photoluminescence quantum yield: 0.06
In CC#N
  photoluminescence quantum yield: 0.035
In CC(C)O
  photoluminescence quantum yield: 0.041
In CCCCOCCCC
  photoluminescence quantum yield: 0.05
In CCOC(C)=O
  photoluminescence quantum yield: 0.046
In CCOCC
  photoluminescence quantum yield: 0.051

## Cc1cc(C)c(N(c2ccccc2)c2ccc(S(=O)(=O)c3ccc(S(=O)(=O)c4ccc(N(c5ccccc5)c5c(C)cc(C)cc5C)cc4)cc3)cc2)c(C)c1
In Cc1ccccc1
  photoluminescence quantum yield: 0.79

## Cc1cc(C)c(B(c2cc(-c3ccccc3)sc2-c2sc(-c3ccccc3)cc2P(=O)(c2ccccc2)c2ccccc2)c2c(C)cc(C)cc2C)c(C)c1
In CO
  photoluminescence quantum yield: 0.75

## c1ccc(-c2nc(-c3cccc4ccccc34)n3ccccc23)cc1
In ClCCl
  photoluminescence quantum yield: 0.125

## CCCCCCCN1C(=CC2=C([O-])C(=Cc3sc4ccccc4[n+]3CCCCCCC)C2=C(C#N)C#N)Sc2ccccc21
In C1COCCO1
  photoluminescence quantum yield: 0.09
In CCO
  photoluminescence quantum yield: 0.14
In CN(C)C=O
  photoluminescence quantum yield: 0.14
In ClC(Cl)Cl
  photoluminescence quantum yield: 0.13

## C(=C\c1ccncn1)/c1ccc(-c2ccc(N(c3ccccc3)c3ccccc3)cc2)cc1
In ClCCl
  photoluminescence quantum yield: 0.52

## CC(C)(C)OC(=O)NCCCC(=O)OCc1ccc2c3cccc4cccc(c5cccc1c52)c43
In CCO
  photoluminescence quantum yield: 0.87

## Cc1cc(=O)oc2cc3cc(-c4cn(Cc5ccccc5)nn4)ccc3cc12
In CCO
  photoluminescence quantum yield: 0.02

## CN(C)c1ccc(-c2nc3c(c4c2-c2ccccc2CC4)-c2ccccc2CC3)cc1
In C1CCOC1
  photoluminescence quantum yield: 0.396
In CC#N
  photoluminescence quantum yield: 0.182
In CCCCCC
  photoluminescence quantum yield: 0.05
In CCOC(C)=O
  photoluminescence quantum yield: 0.164
In CO
  photoluminescence quantum yield: 0.08
In CS(C)=O
  photoluminescence quantum yield: 0.215
In Cc1ccccc1
  photoluminescence quantum yield: 0.112
In ClCCl
  photoluminescence quantum yield: 0.269

## Ic1ccc(-c2c3ccc(=[N+]4CCCCC4)cc-3oc3cc(N4CCCCC4)ccc23)cc1
In CCO
  photoluminescence quantum yield: 0.28
In ClCCl
  photoluminescence quantum yield: 0.85

## Fc1ccc(-c2cc3ccc4cc(-c5ccc(F)cc5)cc5ccc(c2)c3c45)cc1
In C1CCCCC1
  photoluminescence quantum yield: 0.04
In C1CCOC1
  photoluminescence quantum yield: 0.07
In CC#N
  photoluminescence quantum yield: 0.08
In CCCCCC
  photoluminescence quantum yield: 0.02
In CCO
  photoluminescence quantum yield: 0.05
In CN(C)C=O
  photoluminescence quantum yield: 0.09
In CO
  photoluminescence quantum yield: 0.05
In Cc1ccccc1
  photoluminescence quantum yield: 0.07
In ClC(Cl)Cl
  photoluminescence quantum yield: 0.04
In ClCCl
  photoluminescence quantum yield: 0.05

## c1ccc(-c2nc(-c3ccccc3)nc(-n3c4ccccc4c4cc(-n5c6ccccc6c6ccccc65)cc(-n5c6ccccc6c6ccccc65)c43)n2)cc1
In O=P(c1ccccc1)(c1ccccc1)c1ccccc1Oc1ccccc1P(=O)(c1ccccc1)c1ccccc1
  photoluminescence quantum yield: 0.85

## Cc1oc2c(Cl)cc3c(C)cc(=O)oc3c2c1C
In C1CCCCC1
  photoluminescence quantum yield: 0.0005
In C1COCCO1
  photoluminescence quantum yield: 0.003
In CC#N
  photoluminescence quantum yield: 0.007
In CCO
  photoluminescence quantum yield: 0.02
In OCC(F)(F)F
  photoluminescence quantum yield: 0.04

## CN(C)c1ccc(C#Cc2ccc(C#Cc3ccc(C#Cc4ccccc4C#N)cc3C#N)cc2C#N)cc1
In C1CCOC1
  photoluminescence quantum yield: 0.084
In CC#N
  photoluminescence quantum yield: 0.002
In CN(C)C=O
  photoluminescence quantum yield: 0.002
In ClC(Cl)Cl
  photoluminescence quantum yield: 0.999
In c1ccccc1
  photoluminescence quantum yield: 0.999

## CCC1=C(C)C(=O)n2c1cc1c(C)c(CC)c(C)n1c2=O
In CO
  photoluminescence quantum yield: 0.93
In CS(C)=O
  photoluminescence quantum yield: 0.98
In ClC(Cl)Cl
  photoluminescence quantum yield: 1
In c1ccccc1
  photoluminescence quantum yield: 0.98

## Oc1cccc(-c2nc(-c3ccccc3)c(-c3ccccc3)[nH]2)c1
In CO
  photoluminescence quantum yield: 0.24

## S=P1(c2ccccc2)C(c2ccccc2)=Cc2cc3ccccc3cc21 (stereo not drawn)
In ClCCl
  photoluminescence quantum yield: 0.001

## c1ccc2c(-c3c4ccccc4c(-c4ccc(-n5c6ccccc6c6ccccc65)cc4)c4ccccc34)cccc2c1
In ClCCl
  photoluminescence quantum yield: 0.78

## C[n+]1ccc(/C=C/c2ccc(N(c3ccccc3)c3ccc(/C=C/c4cc[n+](C)cc4)cc3)cc2)cc1
In ClCCl
  photoluminescence quantum yield: 0.64
In O
  photoluminescence quantum yield: 0.08
In OCC(O)CO
  photoluminescence quantum yield: 0.11

## CCCCCCN1C(=O)c2cccc3c(-c4ccc(-c5cc(-c6ccccc6)nn5-c5ccccc5)s4)ccc(c23)C1=O
In ClCCl
  photoluminescence quantum yield: 0.16

## Cn1cccc1-c1cc(C#N)ccc1C#N
In C1CCOC1
  photoluminescence quantum yield: 0.139
In CC#N
  photoluminescence quantum yield: 0.024
In CCCCCC
  photoluminescence quantum yield: 0.378
In CCCCOCCCC
  photoluminescence quantum yield: 0.281
In CCOCC
  photoluminescence quantum yield: 0.206

## C=C[Si](c1c2ccccc2cc2ccccc12)(c1c2ccccc2cc2ccccc12)c1c2ccccc2cc2ccccc12
In ClC(Cl)Cl
  photoluminescence quantum yield: 0.017

## c1cc2ccc1-c1ccc(cc1)-c1ccc(s1)-c1ccc(cc1)-c1ccc(cc1)-c1ccc(s1)-c1ccc(cc1)-c1ccc(cc1)-c1ccc-2s1
In C1CCOC1
  photoluminescence quantum yield: 0.27

## CCCCCCc1ccc(-n2c3c4cccc(OC)c4nnc3c3c2c2nnc4c(OC)cccc4c2n3-c2ccc(CCCCCC)cc2)cc1
In Cc1ccccc1
  photoluminescence quantum yield: 0

## COc1cc2c(cc1-c1ccc(C(F)(F)F)cc1)Cc1c3c(c4c(c1-2)-c1cc(OC)c(-c2ccc(C(F)(F)F)cc2)cc1C4)C(=O)N(CCC(C)C)C3=O
In C1CCOC1
  photoluminescence quantum yield: 0.45

## CN(C)c1ccc(C#Cc2cc(C#Cc3ccc(C(F)(F)F)cc3)c3ccc4c(C#Cc5ccc(C(F)(F)F)cc5)cc(C#Cc5ccc(C(F)(F)F)cc5)c5ccc2c3c54)cc1
In ClCCl
  photoluminescence quantum yield: 0.43

## CC(C)c1cccc(C(C)C)c1-n1c(=O)c2ccc3c4ccc5c(=O)n(-c6c(C(C)C)cccc6C(C)C)c(=O)c6cc7c(-c8ccccn8)nc8cc(c1=O)c2c3c8c7c4c56
In ClC(Cl)Cl
  photoluminescence quantum yield: 0.36
